Data taken from patent publication US9169254B2, “Spiroimidazolone derivative” (Chugai Seiyaku Kabushiki Kaisha, priority 2009, dated 2015).

Each molecule was assayed against T1, human PTH1 receptor (Homo sapiens, UniProt Q03431) (assay: In vitro cAMP signal activity in HKRK-B7 cells (LLC-PK1 cells overexpressing the human PTH1 receptor)). Conditions: HKRK-B7 cells; compound at 1×10^−3 M; cAMP produced as percentage of that produced by hPTH(1-34) at 100 nM.
T1 sequence (Q03431 27-593): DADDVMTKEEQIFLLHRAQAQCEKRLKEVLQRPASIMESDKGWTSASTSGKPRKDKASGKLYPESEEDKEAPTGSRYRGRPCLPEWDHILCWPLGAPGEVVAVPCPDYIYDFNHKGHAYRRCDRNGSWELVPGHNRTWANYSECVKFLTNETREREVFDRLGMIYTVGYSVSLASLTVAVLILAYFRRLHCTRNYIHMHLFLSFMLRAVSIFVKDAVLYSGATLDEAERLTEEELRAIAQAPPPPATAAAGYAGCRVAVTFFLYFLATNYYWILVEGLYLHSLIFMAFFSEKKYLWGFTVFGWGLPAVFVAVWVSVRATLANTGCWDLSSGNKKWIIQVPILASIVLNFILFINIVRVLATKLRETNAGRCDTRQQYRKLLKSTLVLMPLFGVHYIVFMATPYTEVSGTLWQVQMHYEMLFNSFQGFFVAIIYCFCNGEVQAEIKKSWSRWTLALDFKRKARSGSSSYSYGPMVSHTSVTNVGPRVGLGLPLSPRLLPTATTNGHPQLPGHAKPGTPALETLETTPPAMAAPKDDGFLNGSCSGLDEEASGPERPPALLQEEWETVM
Format: cell-based

SMILES	cAMP production activity (%)
Cc1cc(/C=C/S(=O)(=O)N2CCC3(CC2)N=C(C2CCC(C)CC2)NC3=O)cc(C)c1N1C(=O)CNC1=O (centres unmarked) [Compound 583, 3-(2,6-dimethyl-4-{(E)-2-[2-(4-methyl-cyclohexyl)-4-oxo-1,3,8-triaza-spiro[4.5]dec-1-ene-8-sulfonyl]-vinyl}-phenyl)-imidazolidine-2,4-dione]	85
CCC1CCC(C2=NC3(CCN(S(=O)(=O)CCc4ccc(C(=O)N5CCN(C6COC6)CC5)cc4C)CC3)C(=O)N2)CC1 (centres unmarked) [Compound 976, 2-(4-ethyl-cyclohexyl)-8-{2-[2-methyl-4-(4-oxetan-3-yl-piperazine-1-carbonyl)-phenyl]-ethanesulfonyl}-1,3,8-triaza-spiro[4.5]dec-1-en-4-one]	73
O=C1NC(C2CCCCC2)=NC12CCN(S(=O)(=O)CCc1cc3nc[nH]c3cc1C(F)(F)F)CC2 [Compound 839, 2-cyclohexyl-8-[2-(6-trifluoromethyl-1H-benzimidazol-5-yl)-ethanesulfonyl]-1,3,8-triaza-spiro[4.5]dec-1-en-4-one]	57
Cc1cc(C(=O)N(C)C)ccc1CCS(=O)(=O)N1CCC2(CC1)N=C(c1cscn1)NC2=O [Compound 121, 3,N,N-trimethyl-4-[2-(4-oxo-2-thiazol-4-yl-1,3,8-triaza-spiro[4.5]dec-1-ene-8-sulfonyl)-ethyl]-benzamide]	5.8
Cc1cc(N(C)C(=O)OC(C)(C)C)cc(C)c1CCS(=O)(=O)N1CCC2(CC1)N=C(C(C)(F)F)NC2=O [Compound 1034, (4-{2-[2-(1,1-difluoro-ethyl)-4-oxo-1,3,8-triaza-spiro[4.5]dec-1-ene-8-sulfonyl]-ethyl}-3,5-dimethyl-phenyl)-methyl-carbamic acid tert-butyl ester]	54
Cc1cc(C(=O)N(C)C)ccc1CCS(=O)(=O)N1CCC2(CC1)N=C(c1ccc(Cl)cc1C)NC2=O [Compound 128, 4-{2-[2-(4-chloro-2-methyl-phenyl)-4-oxo-1,3,8-triaza-spiro[4.5]dec-1-ene-8-sulfonyl]-ethyl}-3,N,N-trimethyl-benzamide]	57
Cc1cc(C(=O)N2CCC(O)(CF)CC2)cc(C)c1/C=C/S(=O)(=O)N1CCC2(CC1)N=C(c1ccc(OC(F)(F)F)c(OCCCC(F)(F)F)c1)NC2=O [Compound 1273, 8-{(E)-2-[4-(4-fluoromethyl-4-hydroxy-piperidine-1-carbonyl)-2,6-dimethyl-phenyl]-ethenesulfonyl}-2-[3-(4,4,4-trifluoro-butoxy)-4-trifluoromethoxy-phenyl]-1,3,8-triaza-spiro[4.5]dec-1-en-4-one]	81
Cc1cc(CN2C(=O)NC(C)(C)C2=O)cc(C)c1/C=C/S(=O)(=O)N1CCC2(CC1)N=C(C1CCC(CCC(F)(F)F)CC1)NC2=O (centres unmarked) [Compound 555, 3-[3,5-dimethyl-4-((E)-2-{4-oxo-2-[4-(3,3,3-trifluoro-propyl)-cyclohexyl]-1,3,8-triaza-spiro[4.5]dec-1-ene-8-sulfonyl}-vinyl)-benzyl]-5,5-dimethyl-imidazolidine-2,4-dione]	40
Cc1cc2ccc1CCS(=O)(=O)N1CCC3(CC1)N=C(NC3=O)c1cc(cc(C(F)(F)F)c1)OCCCCCOCCNC2=O [Compound 1427]	72
CC(=O)Nc1ccc(CCS(=O)(=O)N2CCC3(CC2)N=C(C2CCCCC2)NC3=O)c(C#N)c1 [Compound 652, N-{3-cyano-4-[2-(2-cyclohexyl-4-oxo-1,3,8-triaza-spiro[4.5]dec-1-ene-8-sulfonyl)-ethyl]-phenyl}-acetamide]	63
Cc1cc(C2=NC3(CCN(S(=O)(=O)/C=C/c4c(C)cc(C(=O)N5CCC(O)(CF)CC5)cc4C)CC3)C(=O)N2)ccc1C(F)(F)F [Compound 1254, 8-{(E)-2-[4-(4-fluoromethyl-4-hydroxy-piperidine-1-carbonyl)-2,6-dimethyl-phenyl]-ethenesulfonyl}-2-(3-methyl-4-trifluoromethyl-phenyl)-1,3,8-triaza-spiro[4.5]dec-1-en-4-one]	87

Next, values leading:

cAMP production activity (%)	SMILES
52	CCc1cc(N(C)C(N)=O)ccc1/C=C/S(=O)(=O)N1CCC2(CC1)N=C(C1CCC(C)CC1)NC2=O (centres unmarked) [Compound 727, 1-(3-ethyl-4-{(E)-2-[2-(4-methyl-cyclohexyl)-4-oxo-1,3,8-triaza-spiro[4.5]dec-1-ene-8-sulfonyl]-vinyl}-phenyl)-1-methyl-urea]
46	Cc1cc2[nH]c(=O)[nH]c(=O)c2c(C)c1CCS(=O)(=O)N1CCC2(CC1)N=C(C1CCC(C)CC1)NC2=O (centres unmarked) [Compound 685, 5,7-Dimethyl-6-{2-[2-(4-methyl-cyclohexyl)-4-oxo-1,3,8-triaza-spiro[4.5]dec-1-ene-8-sulfonyl]-ethyl}-1H-quinazoline-2,4-dione]
68	Cc1cc(NCC(=O)N2CCN(C)CC2)ccc1CCS(=O)(=O)N1CCC2(CC1)N=C(c1cccc(OC(F)(F)F)c1)NC2=O [Compound 845, 8-(2-{2-methyl-4-[2-(4-methyl-piperazin-1-yl)-2-oxo-ethylamino]-phenyl}-ethanesulfonyl)-2-(3-trifluoromethoxy-phenyl)-1,3,8-triaza-spiro[4.5]dec-1-en-4-one]
57	Cc1cc(C(=O)N(C)C)ccc1CCS(=O)(=O)N1CCC2(CC1)N=C(c1cccc(Cl)c1)NC2=O [Compound 81, 4-{2-[2-(3-chloro-phenyl)-4-oxo-1,3,8-triaza-spiro[4.5]dec-1-ene-8-sulfonyl]-ethyl}-3,N,N-trimethyl-benzamide]
33	O=C1NC(C2CCCCC2)=NC12CCN(S(=O)(=O)CCc1cccc3cnccc13)CC2 [Compound 320, 2-cyclohexyl-8-(2-isoquinolin-5-yl-ethanesulfonyl)-1,3,8-triaza-spiro[4.5]dec-1-en-4-one]
53	CC[C@H]1CC[C@H](C2=NC3(CCN(S(=O)(=O)/C=C/c4ccc(N5C(=O)NC(=O)C5(C)C)cc4C)CC3)C(=O)N2)CC1 [Compound 626, 1-(4-{(E)-2-[2-(4-ethyl-cyclohexyl)-4-oxo-1,3,8-triaza-spiro[4.5]dec-1-ene-8-sulfonyl]-vinyl}-3-methyl-phenyl)-5,5-dimethyl-imidazolidine-2,4-dione]
108	Cc1cc(C(=O)N2CCC(OC[C@H](O)CO)CC2)cc(C)c1CCS(=O)(=O)N1CCC2(CC1)N=C(CCCCCCCCC(F)(F)F)NC2=O [Compound 1184, 8-(2-{4-[4-((R)-2,3-dihydroxy-propoxy)-piperidine-1-carbonyl]-2,6-dimethyl-phenyl}-ethanesulfonyl)-2-(9,9,9-trifluoro-nonyl)-1,3,8-triaza-spiro[4.5]dec-1-en-4-one]
73	Cc1cc(C(=O)N(C)C)ccc1CCS(=O)(=O)N1CCC2(CC1)N=C(C1CCC(C)CC1)NC2=O (centres unmarked) [Compound 76, 3,N,N-trimethyl-4-{2-[2-(4-methyl-cyclohexyl)-4-oxo-1,3,8-triaza-spiro[4.5]dec-1-ene-8-sulfonyl]-ethyl}-benzamide]
25	CC[C@H]1CC[C@H](C2=NC3(CCN(S(=O)(=O)CCc4ccc(N5CC(=O)NC5=O)cc4C)CC3)C(=O)N2)CC1 [Compound 878, 1-(4-{2-[2-(4-ethyl-cyclohexyl)-4-oxo-1,3,8-triaza-spiro[4.5]dec-1-ene-8-sulfonyl]-ethyl}-3-methyl-phenyl)-imidazolidine-2,4-dione]
